Assay results: US5447934A, “Anti-allergic thiadiazolo [4,3-a]pyridine derivatives” (Boehringer Mannheim GmbH, priority 1991, dated 1995)

These molecules were tested on passive sensitised guinea pig lung parenchyma strips (assay: Inhibition of the antigen-caused constriction of passive sensitised guinea pig lung parenchyma strips in vitro (organ bath)). Settings: Cavia porcellus, 20 min; 10 μg/ml substance; ovalbumin 0.1 μg/ml; 20 min/37°C. preincubation; read-out: % Inhibition of the constriction of passive-sensitised lung parenchyms strips (guinea pigs) induced by ovalbumin.
Type: cell-based
Method: Inhibition of the antigen-caused construction of passive sensitised guinea pig lung parenchyma strips in vitro (organ bath)
For the in vitro investigation of the compounds according to the invention, the inhibition of the antigen-caused constriction of passive sensitised guinea pig lung parenchyma strips was measured, as described in the following:
Pirbright white guinea pigs were stunned by a blow to the nape of the neck and exsanguinated. The lungs were rinsed substantially blood-free in situ with Krebs buffer, pH 7.4. Subsequently, the lungs were removed, cut up into strips (about […]) and the strips passively sensitised for one hour at room temperature with a 1.:50 dilution of a homologous anti-ovalbumin antiserum and then washed with Krebs buffer 1 x. The antiserum had been previously produced according to DAVIES (1) in guinea pigs of the same strain by repeated injection of ovalbumin (2 x crystallised) with addition of complete Freund's adjuvant. Until its used the antiserum was stored undiluted at -18° C. Subsequently, the lung strips were individually suspended on an isometric measurement sensor in 10 ml waterbaths with an initial tension of 1.2 g. Thereafter, the baths were filled with Krebs buffer and continuously gassed at 37° C. with O2 (95%) and CO2 (5%). Via an amplifier the constrictions of the lung strips were recorded on a recorder. After 30 minutes acclimatisation phase, histamine control spasms were produced for the recognition of the reactivity of the organ pieces washed, subsequently the best substance preincubated 37° C. for 20 minutes and thereafter the ovalbumin-caused constriction initiated. The inhibition action of the compounds according to the invention was expressed as percentage reduction of the constriction amplitude of the "samples with best substance" in relation to the "untreated control constrictions".

Row | SMILES | inhibition at 10 µg/mL [%]
1 | Clc1ccc2nsc(=Nc3ccncc3)n2c1 [Example 4] | 61
2 | c1ccn2c(=Nc3ccc4c(c3)OCO4)snc2c1 [Example 2q, 3-(3,4-methylenedioxyphenyl-imino)-3H-[1,2,4]-thiadia-zolo [4,3-a]-pyridine] | 57
3 | CN(O)C(=O)Cc1ccc(N=c2snc3ccccn23)cc1 [Example 9, 4-(3H-[1,2,4]-Thiadiazole[4,3-a]-pyridin-3-ylideneamino)-phenylacetic acid N-methylhydroxamide] | 61
4 | c1ccn2c(=Nc3ccncc3)snc2c1 [Example 2b, 3-(4-pyridinylimino)-3H-[1,2,4]-thiadiazolo [4,3-a]-pyridine] | 80
5 | c1ccn2c(=NC3=NCCS3)snc2c1 [Example 2u, 3-(4,5-dihydrothiazol-2-ylimino)-3H-[1,2,4]-thia-diazolo [4,3-a]pyridine] | 78
6 | c1ccc(N=c2snc3ccccn23)nc1 [Example 2a, 3-(2-pyridinylimino)-3H-[1,2,4]-thiadiazolo [4,3-a]-pyridine] | 56
7 | Cc1cc(O)ccc1N=c1snc2ccccn12 [Example 2p, 3-(4-hydroxy-2-methyl-phenylimino)-3H-[1,2,4]-thiadiazolo [4,3-a]-pyridine] | 62
8 | COc1ccc(N=c2snc3ccccn23)cc1 [Example 2e, 3-(4-methoxyphenylimino)-3H-[1,2,4]-thiadiazolo-[4,3-a]pyridine] | 48

Same assay, conditions: Cavia porcellus, 20 min; 200 μg/ml substance (footnote +); ovalbumin 0.1 μg/ml; 20 min/37°C. preincubation; read-out: % Inhibition of the constriction of passive-sensitised lung parenchyms strips (guinea pigs) induced by ovalbumin

Row | SMILES | inhibition at 200 µg/mL [%]
9 | Cn1c(=O)c2[nH]cnc2n(C)c1=O [aminophylline, reference compound] | 26
